Some test systems named below: T-47D breast; COLO 205 colon; 786-0 renal; HCT-15 colon; UACC-62 melanoma; M14 melanoma; SF-295 CNS; HCT-116 colon; HOP-92 NSCLC; SN12C renal; NCI-H23 lung; MCF7 breast; UO-31 renal; EKVX NSCLC; KM12 colon; SNB-75 CNS; SK-MEL-5 melanoma; RPMI-8226 leukemia.
Common to all, as to assay: inhibition of tumour cell growth, NCI panel, 48 h

We go through eight molecules from PubChem BioAssay (NCI).

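96-well plates; 48 h exposure; 5 concentrations. Endpoints by linear interpolation between flanking doses. Not reached: highest tested concentration assigned. TGI marks complete inhibition of growth.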

Consider `CCOC(=O)CC(=O)CSc1c(-c2ccccc2)c(=O)n(-c2ccccc2)c(=S)n1-c1ccccc1`, for which the TGI in the test on T-47D breast, in the test on COLO 205 colon, in the test with 786-0 renal, in the test on HCT-15 colon, in the test on UACC-62 melanoma and with M14 melanoma was greater than 100 µM throughout. The TGI in the test with SF-295 CNS, in the test on HCT-116 colon, with HOP-92 NSCLC, in the test on SN12C renal, with NCI-H23 lung and with MCF7 breast was greater than 100 µM each time. In addition, the TGI in the test on UO-31 renal, with EKVX NSCLC, in the test on KM12 colon and with SNB-75 CNS was greater than 100 µM in each case.
On to `COc1ccc2nc3c([N+](=O)[O-])ccc(NCCN(C)C)c3c(NCCN(C)C)c2c1`, for which the TGI in the test on T-47D breast is greater than 10 µM; in the test with COLO 205 colon it was greater than 10 µM; in the test with SK-MEL-5 melanoma, 3.28 µM; in the test on 786-0 renal, 1.98 µM; in the test with HCT-15 colon, 2.59 µM; with UACC-62 melanoma it was greater than 10 µM. For the same molecule, the TGI in the test on RPMI-8226 leukemia was 1.97 µM; in the test with M14 melanoma, greater than 10 µM; in the test with SF-295 CNS, 3.03 µM; in the test on HOP-92 NSCLC, greater than 10 µM; in the test with SN12C renal it was 2.78 µM; in the test on NCI-H23 lung, 3.04 µM. For the same molecule, the TGI was found to be 1.84 µM with MCF7 breast, 4.59 µM with EKVX NSCLC, 2.82 µM with KM12 colon and 3.51 µM in the test with SNB-75 CNS.
For the molecule `N#CC1=C(N)OC(c2cccc([N+](=O)[O-])c2)C1(C#N)C#N` (stereo not given), the TGI amounted to 45.1 µM with T-47D breast; 30.7 µM with COLO 205 colon; 31.8 µM in the test with SK-MEL-5 melanoma; 28.1 µM in the test on 786-0 renal; 34.3 µM in the test on HCT-15 colon; 81.6 µM in the test with UACC-62 melanoma. Moreover, the TGI was 47 µM in the test on RPMI-8226 leukemia; 63.6 µM in the test on M14 melanoma; 73.2 µM with SF-295 CNS; 28.5 µM in the test on HCT-116 colon; 32.3 µM in the test on HOP-92 NSCLC; greater than 100 µM in the test on SN12C renal. For the same molecule, the TGI was 39.3 µM in the test on NCI-H23 lung; 48.5 µM in the test with MCF7 breast; 32.8 µM in the test on UO-31 renal; 64.6 µM in the test with EKVX NSCLC; 24.7 µM in the test with SNB-75 CNS.
On to `NNc1ncc2c(n1)-c1ccccc1OC2`, for which the TGI in the test with COLO 205 colon, in the test with SK-MEL-5 melanoma, in the test with 786-0 renal, in the test with HCT-15 colon, with UACC-62 melanoma and with RPMI-8226 leukemia was greater than 100 µM in each case. For the same molecule, the TGI in the test with M14 melanoma, with SF-295 CNS, with HCT-116 colon, in the test with HOP-92 NSCLC, in the test with SN12C renal and in the test on NCI-H23 lung was greater than 100 µM in each case. The TGI in the test with MCF7 breast, with UO-31 renal, in the test with EKVX NSCLC, with KM12 colon and in the test on SNB-75 CNS was greater than 100 µM throughout.
In the case of `Cc1c(N=Nc2ccc(Cl)cc2)c(C)n(C2OC(CO)C(O)C(O)C2O)c(=S)c1C#N` (stereo not given), the TGI in the test on T-47D breast is greater than 100 µM; in the test with COLO 205 colon, 40.6 µM; in the test with SK-MEL-5 melanoma, 21.8 µM; in the test with 786-0 renal, 37.4 µM; in the test with HCT-15 colon it was 60.8 µM; in the test on UACC-62 melanoma, 30.5 µM. For the same molecule, the TGI in the test with RPMI-8226 leukemia turned out to be 50.3 µM; in the test on M14 melanoma, 36.5 µM; in the test on SF-295 CNS it was 83.5 µM; with HCT-116 colon, 29.1 µM; with HOP-92 NSCLC it was 71.4 µM; with SN12C renal, 41.8 µM. Also, the TGI in the test with NCI-H23 lung is 74.3 µM; in the test with MCF7 breast it was greater than 100 µM; in the test with UO-31 renal, 57.9 µM; in the test on EKVX NSCLC, 93.2 µM; in the test with KM12 colon it was 54.5 µM; in the test with SNB-75 CNS, 68 µM.
Turning to `COC(=O)C1(O)c2ccccc2N=C2C1CCN2C` (stereo not given), the TGI with COLO 205 colon, in the test with SK-MEL-5 melanoma, with 786-0 renal, in the test with HCT-15 colon, in the test on UACC-62 melanoma and in the test with RPMI-8226 leukemia was greater than 100 µM in each case. In addition, the TGI in the test on M14 melanoma, with SF-295 CNS, in the test with HCT-116 colon, with HOP-92 NSCLC, in the test with SN12C renal and with NCI-H23 lung was greater than 100 µM throughout. The TGI with UO-31 renal is greater than 100 µM; in the test with EKVX NSCLC, greater than 100 µM; with KM12 colon it was greater than 100 µM; in the test on SNB-75 CNS it was 87.8 µM.
Consider `O=C1OCCC[C@H]2O[C@@H](COCc3ccccc3)C[C@@H]12`, for which the TGI in the test on T-47D breast, in the test with COLO 205 colon, with SK-MEL-5 melanoma, in the test with 786-0 renal, in the test on HCT-15 colon and in the test on UACC-62 melanoma was greater than 100 µM in each case. Further, the TGI in the test on RPMI-8226 leukemia, with M14 melanoma, in the test with SF-295 CNS, with HCT-116 colon, in the test with HOP-92 NSCLC and with SN12C renal was greater than 100 µM in each case. Further, the TGI with NCI-H23 lung, with MCF7 breast, with UO-31 renal, in the test on KM12 colon and in the test on SNB-75 CNS was greater than 100 µM each time.
As for `c1ccc2c3nnc(c2c1)SCCCSc1nnc(c2ccccc12)SCCCS3`, the TGI in the test on T-47D breast was greater than 100 µM; in the test on COLO 205 colon it was greater than 100 µM; with SK-MEL-5 melanoma, 72.2 µM; in the test with 786-0 renal, greater than 100 µM; in the test on HCT-15 colon, greater than 100 µM; in the test with UACC-62 melanoma, 88.8 µM. For the same molecule, the TGI in the test with RPMI-8226 leukemia is greater than 100 µM; with M14 melanoma, greater than 100 µM; with SF-295 CNS, greater than 100 µM; in the test with HCT-116 colon it was greater than 100 µM; with HOP-92 NSCLC, 94.3 µM; in the test with SN12C renal it was greater than 100 µM. In addition, the TGI in the test on NCI-H23 lung was greater than 100 µM; with MCF7 breast, greater than 100 µM; in the test on UO-31 renal, greater than 100 µM; in the test on EKVX NSCLC, greater than 100 µM; with KM12 colon it was greater than 100 µM; in the test with SNB-75 CNS, 50.3 µM.
